Measured values reported in ChEMBL document CHEMBL5252552, “Defined concatenated α6α1β3γ2 GABAA receptor constructs reveal dual action of pyrazoloquinolinone allosteric modulators” (Bioorg Med Chem, 2019).

How the values were obtained:
[1] = molecular target: T1, Gamma-aminobutyric acid receptor subunit alpha-6/beta-3/gamma-2 (Rattus norvegicus) (UniProt P18508+P30191+P63079); test: Positive allosteric modulation of rat recombinant GABAA alpha6beta3alpha6-gamma2beta3 receptor expressed in Xenopus laevis oocytes assessed as maximal efficacy at -80 mV holding potential at 10 nM in presence of GABA EC1 to 1.5 by two-electrode voltage-clamp assay; format: cell-based; settings: Oocyte
[2] = molecular target: T1, Gamma-aminobutyric acid receptor subunit alpha-6/beta-3/gamma-2 (Rattus norvegicus); test: Positive allosteric modulation of rat recombinant GABAA alpha6beta3gamma2 receptor expressed in Xenopus laevis oocytes assessed as maximal efficacy at -80 mV holding potential at 30 nM in presence of GABA EC1 to 1.5 by two-electrode voltage-clamp assay; format: cell-based; settings: Oocyte, filed as positive allosteric modulator
[3] = molecular target: T2, Gamma-aminobutyric acid receptor subunit alpha-1/alpha-6/beta-3/gamma-2 (Rattus norvegicus) (UniProt P18508+P30191+P62813+P63079); test: (§1) Positive allosteric modulation of rat recombinant GABAA gamma2beta3alpha1-beta3alpha6 receptor expressed in Xenopus laevis oocytes assessed as maximal efficacy at -80 mV holding potential at 300 nM in presence of GABA EC1 to 1.5 by two-electrode voltage-clamp assay; format: cell-based; settings: Oocyte, filed as positive allosteric modulator
[4] = molecular target: T1, Gamma-aminobutyric acid receptor subunit alpha-6/beta-3/gamma-2 (Rattus norvegicus); test: Positive allosteric modulation of rat recombinant GABAA alpha6beta3gamma2 receptor expressed in Xenopus laevis oocytes assessed as maximal efficacy at -80 mV holding potential at 3 uM in presence of GABA EC1 to 1.5 by two-electrode voltage-clamp assay; format: cell-based; settings: Oocyte, filed as positive allosteric modulator
[5] = molecular target: T3, Gamma-aminobutyric acid receptor subunit alpha-1/alpha-6/beta-3/gamma-2 (Rattus norvegicus, UniProt P18508+P30191+P62813+P63079); test: as §1, with “increase in GABA-induced current amplitude” for “maximal efficacy”, “under more potent phase” for “at 300 nM”; format: cell-based, Oocyte
[6] = molecular target: T2, Gamma-aminobutyric acid receptor subunit alpha-1/alpha-6/beta-3/gamma-2 (Rattus norvegicus); test: Positive allosteric modulation of rat recombinant GABAA alpha6beta3alpha1-gamma2beta3 receptor expressed in Xenopus laevis oocytes assessed as maximal efficacy at -80 mV holding potential at 3 uM in presence of GABA EC1 to 1.5 by two-electrode voltage-clamp assay; format: cell-based; settings: Oocyte, filed as positive allosteric modulator
[7] = molecular target: T1, Gamma-aminobutyric acid receptor subunit alpha-6/beta-3/gamma-2 (Rattus norvegicus); test: Positive allosteric modulation of rat recombinant GABAA alpha6beta3gamma2 receptor expressed in Xenopus laevis oocytes assessed as maximal efficacy at -80 mV holding potential at 300 nM in presence of GABA EC1 to 1.5 by two-electrode voltage-clamp assay; format: cell-based; settings: Oocyte, filed as positive allosteric modulator
[8] = molecular target: T2, Gamma-aminobutyric acid receptor subunit alpha-1/alpha-6/beta-3/gamma-2 (Rattus norvegicus); test: Positive allosteric modulation of rat recombinant GABAA alpha6beta3alpha1-gamma2beta3 receptor expressed in Xenopus laevis oocytes assessed as maximal efficacy at -80 mV holding potential at 300 nM in presence of GABA EC1 to 1.5 by two-electrode voltage-clamp assay; format: cell-based; settings: Oocyte, filed as positive allosteric modulator
[9] = molecular target: T2, Gamma-aminobutyric acid receptor subunit alpha-1/alpha-6/beta-3/gamma-2 (Rattus norvegicus); test: Positive allosteric modulation of rat recombinant GABAA alpha6beta3alpha1-gamma2beta3 receptor expressed in Xenopus laevis oocytes assessed as maximal efficacy at -80 mV holding potential at 30 uM in presence of GABA EC1 to 1.5 by two-electrode voltage-clamp assay; format: cell-based; settings: Oocyte, filed as positive allosteric modulator
[10] = molecular target: T4, Gamma-aminobutyric acid receptor subunit alpha-1/beta-3/gamma-2 (Rattus norvegicus) (UniProt P18508+P62813+P63079); test: Positive allosteric modulation of rat recombinant GABAA alpha1beta3alpha1-gamma2beta3 receptor expressed in Xenopus laevis oocytes assessed as maximal efficacy at -80 mV holding potential at 30 nM in presence of GABA EC1 to 1.5 by two-electrode voltage-clamp assay; format: cell-based; settings: Oocyte
[11] = molecular target: T4, Gamma-aminobutyric acid receptor subunit alpha-1/beta-3/gamma-2 (Rattus norvegicus); test: Positive allosteric modulation of rat recombinant GABAA alpha1beta3alpha1-gamma2beta3 receptor expressed in Xenopus laevis oocytes assessed as maximal efficacy at -80 mV holding potential at 10 uM in presence of GABA EC1 to 1.5 by two-electrode voltage-clamp assay; format: cell-based; settings: Oocyte, filed as positive allosteric modulator
[12] = molecular target: T4, Gamma-aminobutyric acid receptor subunit alpha-1/beta-3/gamma-2 (Rattus norvegicus); test: Positive allosteric modulation of rat recombinant GABAA alpha1beta3alpha1-gamma2beta3 receptor expressed in Xenopus laevis oocytes assessed as maximal efficacy at -80 mV holding potential at 1 uM in presence of GABA EC1 to 1.5 by two-electrode voltage-clamp assay; format: cell-based; settings: Oocyte
[13] = molecular target: T4, Gamma-aminobutyric acid receptor subunit alpha-1/beta-3/gamma-2 (Rattus norvegicus); test: Positive allosteric modulation of rat recombinant GABAA alpha1beta3alpha1-gamma2beta3 receptor expressed in Xenopus laevis oocytes assessed as maximal efficacy at -80 mV holding potential at 10 nM in presence of GABA EC1 to 1.5 by two-electrode voltage-clamp assay; format: cell-based; settings: Oocyte
[14] = molecular target: T1, Gamma-aminobutyric acid receptor subunit alpha-6/beta-3/gamma-2 (Rattus norvegicus); test: Positive allosteric modulation of rat recombinant GABAA alpha6beta3gamma2 receptor expressed in Xenopus laevis oocytes assessed as maximal efficacy at -80 mV holding potential at 100 nM in presence of GABA EC1 to 1.5 by two-electrode voltage-clamp assay; format: cell-based; settings: Oocyte, filed as positive allosteric modulator
[15] = molecular target: T4, Gamma-aminobutyric acid receptor subunit alpha-1/beta-3/gamma-2 (Rattus norvegicus); test: Positive allosteric modulation of rat recombinant GABAA alpha1beta3alpha1-gamma2beta3 receptor expressed in Xenopus laevis oocytes assessed as maximal efficacy at -80 mV holding potential at 3 uM in presence of GABA EC1 to 1.5 by two-electrode voltage-clamp assay; format: cell-based; settings: Oocyte, filed as positive allosteric modulator
[16] = molecular target: T2, Gamma-aminobutyric acid receptor subunit alpha-1/alpha-6/beta-3/gamma-2 (Rattus norvegicus); test: Positive allosteric modulation of rat recombinant GABAA gamma2beta3alpha1-beta3alpha6 receptor expressed in Xenopus laevis oocytes assessed as maximal efficacy at -80 mV holding potential at 30 nM in presence of GABA EC1 to 1.5 by two-electrode voltage-clamp assay; format: cell-based; settings: Oocyte
[17] = molecular target: T1, Gamma-aminobutyric acid receptor subunit alpha-6/beta-3/gamma-2 (Rattus norvegicus); test: Positive allosteric modulation of rat recombinant GABAA alpha6beta3alpha6-gamma2beta3 receptor expressed in Xenopus laevis oocytes assessed as maximal efficacy at -80 mV holding potential at 3 uM in presence of GABA EC1 to 1.5 by two-electrode voltage-clamp assay; format: cell-based; settings: Oocyte, filed as positive allosteric modulator
[18] = molecular target: T1, Gamma-aminobutyric acid receptor subunit alpha-6/beta-3/gamma-2 (Rattus norvegicus); test: Positive allosteric modulation of rat recombinant GABAA alpha6beta3alpha6-gamma2beta3 receptor expressed in Xenopus laevis oocytes assessed as maximal efficacy at -80 mV holding potential at 10 uM in presence of GABA EC1 to 1.5 by two-electrode voltage-clamp assay; format: cell-based; settings: Oocyte, filed as positive allosteric modulator
[19] = molecular target: T1, Gamma-aminobutyric acid receptor subunit alpha-6/beta-3/gamma-2 (Rattus norvegicus); test: Positive allosteric modulation of rat recombinant GABAA alpha6beta3gamma2 receptor expressed in Xenopus laevis oocytes assessed as maximal efficacy at -80 mV holding potential at 3 nM in presence of GABA EC1 to 1.5 by two-electrode voltage-clamp assay; format: cell-based; settings: Oocyte
[20] = molecular target: T1, Gamma-aminobutyric acid receptor subunit alpha-6/beta-3/gamma-2 (Rattus norvegicus); test: Positive allosteric modulation of rat recombinant GABAA alpha6beta3alpha6-gamma2beta3 receptor expressed in Xenopus laevis oocytes assessed as maximal current under less potent phase in presence of GABA EC1 to 1.5 by two-electrode voltage-clamp assay relative to control; format: cell-based; settings: Oocyte, filed as positive allosteric modulator
[21] = molecular target: Gamma-aminobutyric acid receptor subunit alpha-6/beta-3/gamma-2 (Rattus norvegicus, UniProt P18508+P30191+P63079); test: (§2) Positive allosteric modulation of rat recombinant GABAA alpha6beta3gamma2 receptor expressed in Xenopus laevis oocytes assessed as increase in GABA-induced current amplitude at -80 mV holding potential under less potent phase in presence of GABA EC1 to 1.5 by two-electrode voltage-clamp assay; format: cell-based, Oocyte
[22] = molecular target: T1, Gamma-aminobutyric acid receptor subunit alpha-6/beta-3/gamma-2 (Rattus norvegicus); test: Positive allosteric modulation of rat recombinant GABAA alpha6beta3gamma2 receptor expressed in Xenopus laevis oocytes assessed as maximal efficacy at -80 mV holding potential at 10 uM in presence of GABA EC1 to 1.5 by two-electrode voltage-clamp assay; format: cell-based; settings: Oocyte, filed as positive allosteric modulator
[23] = molecular target: T3, Gamma-aminobutyric acid receptor subunit alpha-1/alpha-6/beta-3/gamma-2; test: as §2, with “gamma2beta3alpha1-beta3alpha6” for “alpha6beta3gamma2”; format: cell-based, Oocyte

T3 sequence (P18508 whole entry): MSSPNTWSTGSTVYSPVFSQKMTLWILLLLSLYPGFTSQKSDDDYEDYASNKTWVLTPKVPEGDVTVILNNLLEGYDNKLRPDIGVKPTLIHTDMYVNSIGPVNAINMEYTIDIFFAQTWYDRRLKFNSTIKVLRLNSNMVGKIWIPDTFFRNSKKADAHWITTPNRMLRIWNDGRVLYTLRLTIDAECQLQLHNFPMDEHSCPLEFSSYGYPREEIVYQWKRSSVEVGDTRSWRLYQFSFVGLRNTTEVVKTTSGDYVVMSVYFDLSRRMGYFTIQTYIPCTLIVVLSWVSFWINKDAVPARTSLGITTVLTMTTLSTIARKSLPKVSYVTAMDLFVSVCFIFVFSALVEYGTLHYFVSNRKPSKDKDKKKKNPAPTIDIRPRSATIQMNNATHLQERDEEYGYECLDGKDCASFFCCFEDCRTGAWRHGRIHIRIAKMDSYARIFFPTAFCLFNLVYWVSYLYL
T3 sequence (P30191 whole entry): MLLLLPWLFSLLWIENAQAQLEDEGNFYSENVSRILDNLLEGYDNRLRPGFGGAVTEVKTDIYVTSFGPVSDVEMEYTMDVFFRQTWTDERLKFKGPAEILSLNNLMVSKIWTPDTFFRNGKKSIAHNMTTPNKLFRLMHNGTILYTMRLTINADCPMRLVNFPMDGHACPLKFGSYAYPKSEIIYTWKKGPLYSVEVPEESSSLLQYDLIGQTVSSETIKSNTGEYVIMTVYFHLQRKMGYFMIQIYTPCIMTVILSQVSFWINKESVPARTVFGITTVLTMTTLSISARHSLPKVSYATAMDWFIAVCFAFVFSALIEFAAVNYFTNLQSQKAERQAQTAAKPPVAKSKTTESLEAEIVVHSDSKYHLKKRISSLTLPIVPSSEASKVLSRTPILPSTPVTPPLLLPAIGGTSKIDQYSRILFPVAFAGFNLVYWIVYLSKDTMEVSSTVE
T3 sequence (P62813 whole entry): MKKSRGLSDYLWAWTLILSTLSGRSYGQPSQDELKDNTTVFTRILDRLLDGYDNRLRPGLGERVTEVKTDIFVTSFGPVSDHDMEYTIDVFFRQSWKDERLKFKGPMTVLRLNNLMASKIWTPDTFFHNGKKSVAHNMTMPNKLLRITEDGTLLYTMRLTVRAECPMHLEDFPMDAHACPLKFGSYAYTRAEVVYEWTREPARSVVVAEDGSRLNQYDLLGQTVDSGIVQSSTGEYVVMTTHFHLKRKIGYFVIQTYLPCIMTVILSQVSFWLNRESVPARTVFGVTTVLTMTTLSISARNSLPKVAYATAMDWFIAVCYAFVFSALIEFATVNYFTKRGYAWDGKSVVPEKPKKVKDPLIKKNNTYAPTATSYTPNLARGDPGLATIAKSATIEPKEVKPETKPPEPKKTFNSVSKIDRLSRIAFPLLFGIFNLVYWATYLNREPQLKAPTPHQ
T3 sequence (P63079 whole entry): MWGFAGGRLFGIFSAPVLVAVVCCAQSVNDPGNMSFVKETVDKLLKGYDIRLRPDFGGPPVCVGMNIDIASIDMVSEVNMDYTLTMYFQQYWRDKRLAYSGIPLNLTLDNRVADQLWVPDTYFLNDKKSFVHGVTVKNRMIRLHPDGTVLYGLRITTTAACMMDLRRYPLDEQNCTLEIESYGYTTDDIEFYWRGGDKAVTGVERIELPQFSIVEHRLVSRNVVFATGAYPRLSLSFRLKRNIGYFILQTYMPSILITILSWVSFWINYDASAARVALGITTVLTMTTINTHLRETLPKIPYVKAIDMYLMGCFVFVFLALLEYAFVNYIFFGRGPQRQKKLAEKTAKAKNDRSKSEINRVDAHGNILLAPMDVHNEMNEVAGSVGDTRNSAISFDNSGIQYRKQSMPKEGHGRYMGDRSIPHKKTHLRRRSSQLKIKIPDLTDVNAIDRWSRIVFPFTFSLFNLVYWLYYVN
Gamma-aminobutyric acid receptor subunit alpha-6/beta-3/gamma-2, sequence (P18508 whole entry): as the sequence (P18508 whole entry) above
Gamma-aminobutyric acid receptor subunit alpha-6/beta-3/gamma-2, sequence (P30191 whole entry): as the sequence (P30191 whole entry) above
Gamma-aminobutyric acid receptor subunit alpha-6/beta-3/gamma-2, sequence (P63079 whole entry): as the sequence (P63079 whole entry) above

- Efficacy [1]: 33%
- Efficacy [2]: 49%
- Efficacy [3]: 48%
- Efficacy [4]: 377%
- EC50 [5]: 0.004 µM
- Efficacy [6]: 363%
- Efficacy [7]: 121%
- Efficacy [8]: 60%
- Efficacy [9]: 838%
- Efficacy [10]: 5%
- Efficacy [11]: 157%
- Efficacy [12]: 34%
- Efficacy [13]: 1%
- Efficacy [14]: 46%
- Efficacy [15]: 95%
- Efficacy [16]: 31%
- Efficacy [17]: 320%
- Efficacy [18]: 621%
- Efficacy [19]: 23%
- %max [20]: 657%
- EC50 [21]: 11 µM
- Efficacy [22]: 585%
- EC50 [23]: 36 µM
SMILES: COc1ccc(-n2nc3c4ccc(Br)cc4[nH]cc-3c2=O)cc1
